Laboratory results reported in patent publication US20020137929A1, “1 - (3-heterocyclylphenyl) isothiourea, -isourea, -guanidine and -amidine herbicidal agents” (Intellectual Property Department, BASF Aktiengesellschaft, priority 1998, published 2002).

Legend:
[1] = tested on: CASOB (Sicklepod); assay: Preemergence herbicidal evaluation; format: in vivo, Cassia obtusifolia; conditions: rated 4-5 weeks after treatment
Procedure, shortened: (§1)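 Greenhouse preemergence test: seed-soil mix sown on ~1 inch soil; aqueous acetone spray at equivalent of ~0.0156–0.500 kg/ha; greenhouse-held and watered; scored 0–9 visually at 4–5 weeks.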

[2] = tested on: MOOVA (Monochoria); assay: Preemergence weed control under flooded paddy conditions; format: in vivo, Monochoria vaginalis; conditions: rated 3-4 weeks after treatment
Procedure, shortened: (§2)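 Values are visual 0-9 scores against a control for a preemergence application into paddy flood water at about 0.0313 to 0.500 kg/ha. Greenhouse duration was three to four weeks.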

[3] = tested on: AMBEL (Ragweed, Common); assay: Preemergence herbicidal evaluation; format: in vivo, Ambrosia artemisifolia; conditions: rated 4-5 weeks after treatment
Procedure, shortened: as §1

[4] = tested on: AMBEL (Ragweed, Common); assay: Postemergence herbicidal evaluation; format: in vivo, Ambrosia artemisifolia
Procedure, shortened: (§3)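 ~2-wk seedlings; postemergence spray, 40 psi; vehicle 1:1 acetone:water + 0.5% Tween 20; rate ≈0.0156–0.500 kg/ha; greenhouse hold; scored 4–5 wk after treatment, 0–9 scale vs control; repeat tests averaged.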

[5] = tested on: IPOHE (Morningglory, Ivyleaf); assay: Postemergence herbicidal evaluation; format: in vivo, Ipomoea hederacea
Procedure, shortened: as §3

[6] = tested on: TRZAWR (Wheat, Winter, cv Riband); assay: Postemergence herbicidal evaluation; format: in vivo, Triticum aestivum
Procedure, shortened: as §3

[7] = tested on: GLXMAW (Soybean, Williams); assay: Postemergence herbicidal evaluation; format: in vivo, Glycine max, (L.) Merr. cv Williams
Procedure, shortened: as §3

[8] = tested on: ORYSAT (Rice, Tebonnet); assay: Preemergence herbicidal evaluation; format: in vivo, Oryza sativa, (L.) Tebonnet; conditions: rated 4-5 weeks after treatment
Procedure, shortened: as §1

[9] = tested on: ECHCG (Barnyardgrass); assay: Postemergence herbicidal evaluation; format: in vivo, Echinochloa crus-galli
Procedure, shortened: as §3

[10] = tested on: SAGPY (Arrowhead (Pygmaea)); assay: Preemergence weed control under flooded paddy conditions; format: in vivo, Sagittaria pygmaea; conditions: rated 3-4 weeks after treatment
Procedure, shortened: as §2

[11] = tested on: CASOB (Sicklepod); assay: Postemergence herbicidal evaluation; format: in vivo, Cassia obtusifolia
Procedure, shortened: as §3

[12] = tested on: GLXMAW (Soybean, Williams); assay: Preemergence herbicidal evaluation; format: in vivo, Glycine max, (L.) Merr. cv Williams; conditions: rated 4-5 weeks after treatment
Procedure, shortened: as §1

[13] = tested on: ABUTH (Velvetleaf); assay: Preemergence herbicidal evaluation; format: in vivo, Abutilon theophrasti; conditions: rated 4-5 weeks after treatment
Procedure, shortened: as §1

[14] = tested on: CHEAL (Lambsquarters, Common); assay: Preemergence herbicidal evaluation; format: in vivo, Chenopodium album; conditions: rated 4-5 weeks after treatment
Procedure, shortened: as §1

[15] = tested on: CHEAL (Lambsquarters, Common); assay: Postemergence herbicidal evaluation; format: in vivo, Chenopodium album
Procedure, shortened: as §3

[16] = tested on: IPOHE (Morningglory, Ivyleaf); assay: Preemergence herbicidal evaluation; format: in vivo, Ipomoea hederacea; conditions: rated 4-5 weeks after treatment
Procedure, shortened: as §1

## CN1C(=O)C(CC(=O)O)SC1=Nc1cc(-n2c(=O)cc(C(F)(F)F)n(C)c2=O)c(F)cc1Cl (stereo not shown) [Compound 63, 2-{{2-Chloro-5-[3,6-dihydro-3-methyl-2,6-dioxo-4-(trifluoromethyl)-1(2H)-pyrimidinyl]-4-fluoro-phenyl}imino}-3-methyl-4-oxo-5-thiazolidineacetic acid]
[1]; rate 0.0156 kg/ha
  Preemergence herbicidal rating CASOB: 0.0
[1]; rate 0.0313 kg/ha
  Preemergence herbicidal rating CASOB: 2.0
[1]; rate 0.0625 kg/ha
  Preemergence herbicidal rating CASOB: 2.0
[1]; rate 0.1250 kg/ha
  Preemergence herbicidal rating CASOB: 2.0
[1]; rate 0.2500 kg/ha
  Preemergence herbicidal rating CASOB: 7.0
[2]; 0.0313 kg/ha
  MOOVA herbicidal effect rating: 9.0
[2]; 0.0625 kg/ha
  MOOVA herbicidal effect rating: 9.0
[2]; 0.1250 kg/ha
  MOOVA herbicidal effect rating: 9.0
[2]; 0.2500 kg/ha
  MOOVA herbicidal effect rating: 9.0
[3]; rate 0.0156 kg/ha
  Preemergence herbicidal rating AMBEL: 0.0
[3]; rate 0.0313 kg/ha
  Preemergence herbicidal rating AMBEL: 0.0
[3]; rate 0.0625 kg/ha
  Preemergence herbicidal rating AMBEL: 6.0
[3]; rate 0.1250 kg/ha
  Preemergence herbicidal rating AMBEL: 9.0
[3]; rate 0.2500 kg/ha
  Preemergence herbicidal rating AMBEL: 9.0
[4]; Rate 0.0158 kg/ha
  Postemergence herbicidal rating AMBEL: 6.0
[4]; Rate 0.0315 kg/ha
  Postemergence herbicidal rating AMBEL: 6.0
[4]; Rate 0.0630 kg/ha
  Postemergence herbicidal rating AMBEL: 9.0
[5]; Rate 0.0158 kg/ha
  Postemergence herbicidal rating IPOHE: 9.0
[5]; Rate 0.0315 kg/ha
  Postemergence herbicidal rating IPOHE: 9.0
[5]; Rate 0.0630 kg/ha
  Postemergence herbicidal rating IPOHE: 9.0
[6]; Rate 0.0158 kg/ha
  Postemergence herbicidal rating TRZAWR: 5.5
[6]; Rate 0.0315 kg/ha
  Postemergence herbicidal rating TRZAWR: 6.0
[6]; Rate 0.0630 kg/ha
  Postemergence herbicidal rating TRZAWR: 7.0
[7]; Rate 0.0158 kg/ha
  Postemergence herbicidal rating GLXMAW: 6.5
[7]; Rate 0.0315 kg/ha
  Postemergence herbicidal rating GLXMAW: 8.5
[7]; Rate 0.0630 kg/ha
  Postemergence herbicidal rating GLXMAW: 7.5
[8]; rate 0.0156 kg/ha
  Preemergence herbicidal rating ORYSAT: 0.0
[8]; rate 0.0313 kg/ha
  Preemergence herbicidal rating ORYSAT: 0.0
[8]; rate 0.0625 kg/ha
  Preemergence herbicidal rating ORYSAT: 5.0
[8]; rate 0.1250 kg/ha
  Preemergence herbicidal rating ORYSAT: 7.0
[8]; rate 0.2500 kg/ha
  Preemergence herbicidal rating ORYSAT: 7.0
[9]; Rate 0.0158 kg/ha
  Postemergence herbicidal rating ECHCG: 2.0
[9]; Rate 0.0315 kg/ha
  Postemergence herbicidal rating ECHCG: 2.0
[9]; Rate 0.0630 kg/ha
  Postemergence herbicidal rating ECHCG: 6.0
[10]; 0.0313 kg/ha
  SAGPY herbicidal effect rating: 4.0
[10]; 0.0625 kg/ha
  SAGPY herbicidal effect rating: 7.0
[10]; 0.1250 kg/ha
  SAGPY herbicidal effect rating: 9.0
[10]; 0.2500 kg/ha
  SAGPY herbicidal effect rating: 9.0
[11]; Rate 0.0158 kg/ha
  Postemergence herbicidal rating CASOB: 0.0
[11]; Rate 0.0315 kg/ha
  Postemergence herbicidal rating CASOB: 3.0
[11]; Rate 0.0630 kg/ha
  Postemergence herbicidal rating CASOB: 5.0
[12]; rate 0.0156 kg/ha
  Preemergence herbicidal rating GLXMAW: 0.0
[12]; rate 0.0313 kg/ha
  Preemergence herbicidal rating GLXMAW: 1.0
[12]; rate 0.0625 kg/ha
  Preemergence herbicidal rating GLXMAW: 4.0
[12]; rate 0.1250 kg/ha
  Preemergence herbicidal rating GLXMAW: 6.0
[12]; rate 0.2500 kg/ha
  Preemergence herbicidal rating GLXMAW: 7.0
[13]; rate 0.0156 kg/ha
  Preemergence herbicidal rating ABUTH: 1.0
[13]; rate 0.0313 kg/ha
  Preemergence herbicidal rating ABUTH: 6.0
[13]; rate 0.0625 kg/ha
  Preemergence herbicidal rating ABUTH: 9.0
[13]; rate 0.1250 kg/ha
  Preemergence herbicidal rating ABUTH: 9.0
[13]; rate 0.2500 kg/ha
  Preemergence herbicidal rating ABUTH: 9.0
[14]; rate 0.0313 kg/ha
  Preemergence herbicidal rating CHEAL: 7.0
[14]; rate 0.0625 kg/ha
  Preemergence herbicidal rating CHEAL: 9.0
[14]; rate 0.1250 kg/ha
  Preemergence herbicidal rating CHEAL: 9.0
[14]; rate 0.2500 kg/ha
  Preemergence herbicidal rating CHEAL: 9.0
[15]; Rate 0.0158 kg/ha
  Postemergence herbicidal rating CHEAL: 9.0
[15]; Rate 0.0315 kg/ha
  Postemergence herbicidal rating CHEAL: 9.0
[15]; Rate 0.0630 kg/ha
  Postemergence herbicidal rating CHEAL: 7.0
[16]; rate 0.0156 kg/ha
  Preemergence herbicidal rating IPOHE: 0.0
[16]; rate 0.0313 kg/ha
  Preemergence herbicidal rating IPOHE: 1.0
[16]; rate 0.0625 kg/ha
  Preemergence herbicidal rating IPOHE: 6.0
[16]; rate 0.1250 kg/ha
  Preemergence herbicidal rating IPOHE: 7.0
[16]; rate 0.2500 kg/ha
  Preemergence herbicidal rating IPOHE: 9.0

## C=CCN1C(=O)C(CC(=O)OC)SC1=Nc1cc(-n2c(=O)cc(C(F)(F)F)n(C)c2=O)c(F)cc1Cl (stereo not shown) [Compound 64, Methyl 3-allyl-2-{{2-chloro-5-[3,6-dihydro-3-methyl-2,6-dioxo-4-(trifluoromethyl)-1(2H)-pyrimidinyl]-4-fluorophenyl}imino}-4-oxo-5-thiazolidineacetate]
[1]; rate 0.0156 kg/ha
  Preemergence herbicidal rating CASOB: 0.0
[1]; rate 0.0313 kg/ha
  Preemergence herbicidal rating CASOB: 0.0
[1]; rate 0.0625 kg/ha
  Preemergence herbicidal rating CASOB: 1.0
[1]; rate 0.1250 kg/ha
  Preemergence herbicidal rating CASOB: 5.0
[1]; rate 0.2500 kg/ha
  Preemergence herbicidal rating CASOB: 4.0
[2]; 0.0313 kg/ha
  MOOVA herbicidal effect rating: 7.0
[2]; 0.0625 kg/ha
  MOOVA herbicidal effect rating: 9.0
[2]; 0.1250 kg/ha
  MOOVA herbicidal effect rating: 9.0
[2]; 0.2500 kg/ha
  MOOVA herbicidal effect rating: 9.0
[3]; rate 0.0156 kg/ha
  Preemergence herbicidal rating AMBEL: 2.0
[3]; rate 0.0313 kg/ha
  Preemergence herbicidal rating AMBEL: 6.0
[3]; rate 0.0625 kg/ha
  Preemergence herbicidal rating AMBEL: 7.0
[3]; rate 0.1250 kg/ha
  Preemergence herbicidal rating AMBEL: 9.0
[3]; rate 0.2500 kg/ha
  Preemergence herbicidal rating AMBEL: 9.0
[4]; Rate 0.0158 kg/ha
  Postemergence herbicidal rating AMBEL: 9.0
[4]; Rate 0.0315 kg/ha
  Postemergence herbicidal rating AMBEL: 9.0
[4]; Rate 0.0630 kg/ha
  Postemergence herbicidal rating AMBEL: 9.0
[5]; Rate 0.0158 kg/ha
  Postemergence herbicidal rating IPOHE: 9.0
[5]; Rate 0.0315 kg/ha
  Postemergence herbicidal rating IPOHE: 9.0
[5]; Rate 0.0630 kg/ha
  Postemergence herbicidal rating IPOHE: 9.0
[6]; Rate 0.0158 kg/ha
  Postemergence herbicidal rating TRZAWR: 6.0
[6]; Rate 0.0315 kg/ha
  Postemergence herbicidal rating TRZAWR: 6.0
[6]; Rate 0.0630 kg/ha
  Postemergence herbicidal rating TRZAWR: 7.0
[7]; Rate 0.0158 kg/ha
  Postemergence herbicidal rating GLXMAW: 7.0
[7]; Rate 0.0315 kg/ha
  Postemergence herbicidal rating GLXMAW: 7.5
[7]; Rate 0.0630 kg/ha
  Postemergence herbicidal rating GLXMAW: 7.5
[8]; rate 0.0156 kg/ha
  Preemergence herbicidal rating ORYSAT: 0.0
[8]; rate 0.0313 kg/ha
  Preemergence herbicidal rating ORYSAT: 0.0
[8]; rate 0.0625 kg/ha
  Preemergence herbicidal rating ORYSAT: 1.0
[8]; rate 0.1250 kg/ha
  Preemergence herbicidal rating ORYSAT: 1.0
[8]; rate 0.2500 kg/ha
  Preemergence herbicidal rating ORYSAT: 5.0
[9]; Rate 0.0158 kg/ha
  Postemergence herbicidal rating ECHCG: 3.0
[9]; Rate 0.0315 kg/ha
  Postemergence herbicidal rating ECHCG: 5.0
[9]; Rate 0.0630 kg/ha
  Postemergence herbicidal rating ECHCG: 7.0
[10]; 0.0313 kg/ha
  SAGPY herbicidal effect rating: 0.0
[10]; 0.0625 kg/ha
  SAGPY herbicidal effect rating: 3.0
[10]; 0.1250 kg/ha
  SAGPY herbicidal effect rating: 5.0
[10]; 0.2500 kg/ha
  SAGPY herbicidal effect rating: 8.0
[11]; Rate 0.0158 kg/ha
  Postemergence herbicidal rating CASOB: 2.0
[11]; Rate 0.0315 kg/ha
  Postemergence herbicidal rating CASOB: 2.0
[11]; Rate 0.0630 kg/ha
  Postemergence herbicidal rating CASOB: 3.0
[12]; rate 0.0156 kg/ha
  Preemergence herbicidal rating GLXMAW: 0.0
[12]; rate 0.0313 kg/ha
  Preemergence herbicidal rating GLXMAW: 0.0
[12]; rate 0.0625 kg/ha
  Preemergence herbicidal rating GLXMAW: 2.0
[12]; rate 0.1250 kg/ha
  Preemergence herbicidal rating GLXMAW: 3.0
[12]; rate 0.2500 kg/ha
  Preemergence herbicidal rating GLXMAW: 5.0
[13]; rate 0.0156 kg/ha
  Preemergence herbicidal rating ABUTH: 1.0
[13]; rate 0.0313 kg/ha
  Preemergence herbicidal rating ABUTH: 9.0
[13]; rate 0.0625 kg/ha
  Preemergence herbicidal rating ABUTH: 9.0
[13]; rate 0.1250 kg/ha
  Preemergence herbicidal rating ABUTH: 9.0
[13]; rate 0.2500 kg/ha
  Preemergence herbicidal rating ABUTH: 9.0
[14]; rate 0.0156 kg/ha
  Preemergence herbicidal rating CHEAL: 9.0
[14]; rate 0.0313 kg/ha
  Preemergence herbicidal rating CHEAL: 9.0
[14]; rate 0.0625 kg/ha
  Preemergence herbicidal rating CHEAL: 9.0
[14]; rate 0.1250 kg/ha
  Preemergence herbicidal rating CHEAL: 9.0
[14]; rate 0.2500 kg/ha
  Preemergence herbicidal rating CHEAL: 9.0
[15]; Rate 0.0158 kg/ha
  Postemergence herbicidal rating CHEAL: 9.0
[15]; Rate 0.0315 kg/ha
  Postemergence herbicidal rating CHEAL: 9.0
[15]; Rate 0.0630 kg/ha
  Postemergence herbicidal rating CHEAL: 9.0
[16]; rate 0.0156 kg/ha
  Preemergence herbicidal rating IPOHE: 0.0
[16]; rate 0.0313 kg/ha
  Preemergence herbicidal rating IPOHE: 0.0
[16]; rate 0.0625 kg/ha
  Preemergence herbicidal rating IPOHE: 9.0
[16]; rate 0.1250 kg/ha
  Preemergence herbicidal rating IPOHE: 9.0
[16]; rate 0.2500 kg/ha
  Preemergence herbicidal rating IPOHE: 9.0
